Reference: article PMC5428354, “Screening of a natural compound library identifies emodin, a natural compound from Rheum palmatum Linn that inhibits DPP4” (PeerJ, 2017)
Where two headings read alike, the source gives them in different places.

Target: DPP4 (Homo sapiens, UniProt P27487)
Assay: DPP4 activity assay (DPP4 inhibitor screening assay kit, Cayman);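 further: fluorescence read at excitation 360 nm and emission 460 nm after the enzyme reaction ran 30 min at 37 °C in a 96-well plate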
Assay type: biochemical
Set-up: purchased Cayman Chemical, Ann Arbor, MI, USA
Details: for remaining activity at 10 µM: 0.5 h
[1] = 10 µM, control mean 100.0, Figure 1A raw data, read-out: DPP4 activity in library screen, Exp 1
[2] = 10 µM, control mean 100.0, Figure 1A raw data, read-out: DPP4 activity in library screen, Exp 2
[3] = 10 µM, control mean 100.0, Figure 1A raw data, read-out: DPP4 activity in library screen, Exp 3
[4] = 10 µM, control mean 100.0, mean of Exp 1-3, read-out: DPP4 activity in library screen, Mean
[5] = 10 µM, control mean 100.0, mean of Exp 1-3
[6] = 10 µM, control mean 100.0, Figure 1A raw data

Chain of DPP4 (P27487 whole entry): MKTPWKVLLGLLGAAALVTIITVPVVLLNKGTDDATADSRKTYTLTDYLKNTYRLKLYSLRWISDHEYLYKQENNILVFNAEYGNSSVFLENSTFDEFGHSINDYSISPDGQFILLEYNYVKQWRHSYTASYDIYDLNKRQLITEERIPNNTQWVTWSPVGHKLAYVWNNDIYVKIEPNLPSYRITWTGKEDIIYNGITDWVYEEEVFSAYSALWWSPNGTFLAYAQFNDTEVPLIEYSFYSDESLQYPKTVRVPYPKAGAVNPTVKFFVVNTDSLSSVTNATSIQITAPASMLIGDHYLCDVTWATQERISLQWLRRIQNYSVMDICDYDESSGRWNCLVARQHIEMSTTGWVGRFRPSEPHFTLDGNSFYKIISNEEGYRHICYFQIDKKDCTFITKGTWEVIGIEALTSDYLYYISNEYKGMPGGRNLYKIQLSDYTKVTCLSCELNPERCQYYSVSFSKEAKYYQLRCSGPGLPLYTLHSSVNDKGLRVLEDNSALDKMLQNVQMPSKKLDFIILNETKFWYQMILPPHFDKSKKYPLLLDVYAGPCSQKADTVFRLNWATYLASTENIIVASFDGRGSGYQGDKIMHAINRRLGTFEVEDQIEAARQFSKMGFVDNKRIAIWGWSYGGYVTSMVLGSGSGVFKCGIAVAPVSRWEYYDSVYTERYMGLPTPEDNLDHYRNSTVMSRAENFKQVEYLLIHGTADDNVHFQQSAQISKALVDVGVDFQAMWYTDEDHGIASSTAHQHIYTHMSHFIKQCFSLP

Structure (SMILES)	remaining activity at 10 µM [1] [%]	remaining activity at 10 µM [2] [%]	remaining activity at 10 µM [3] [%]	remaining activity at 10 µM [4] [%]	other results
O=c1cccc2n1C[C@@H]1CNC[C@H]2C1 [Cytisine]	–	–	–	–	remaining activity at 10 µM (read-out: DPP4 activity in library screen, Exp 1): 90.3%; remaining activity at 10 µM (read-out: DPP4 activity in library screen, Exp 2): 91%; remaining activity at 10 µM (read-out: DPP4 activity in library screen, Exp 3): 109%; remaining activity at 10 µM (read-out: DPP4 activity in library screen, Mean): 96.7%
OC[C@@H](O)[C@@H](O)[C@H](O)[C@H](O)CO [D-Mannitol]	96	95.6	83.5	91.7	–
C[C@H]1[C@@H](O)O[C@@H]2O[C@@]3(C)CC[C@H]4[C@H](C)CC[C@@H]1[C@@]24OO3 [Dihydroartemisinin (DHA), Dihydroartemisinin]	97.1	91	88.2	92.1	–
O=C1c2c(O)cc(O)cc2O[C@H](c2cc(O)c(O)c(O)c2)[C@H]1O [Dihydromyricetin]	101	88.8	72.1	87.3	–
C[C@@H]1CC[C@@]2(OC1)O[C@H]1C[C@H]3[C@@H]4CC=C5C[C@@H](O[C@@H]6O[C@H](CO)[C@@H](O[C@@H]7O[C@@H](C)[C@H](O)[C@@H](O)[C@H]7O)[C@H](O)[C@H]6O[C@@H]6O[C@@H](C)[C@H](O)[C@@H](O)[C@H]6O)CC[C@]5(C)[C@H]4CC[C@]3(C)[C@H]1[C@@H]2C [Dioscin]	100	100	79.1	93.1	–
COc1ccc(-c2cc(=O)c3c(O)cc(O)cc3o2)cc1O [Diosmetin]	77.2	77.5	77.6	77.4	–
COc1ccc(-c2cc(=O)c3c(O)cc(O[C@@H]4O[C@H](CO[C@@H]5O[C@@H](C)[C@H](O)[C@@H](O)[C@H]5O)[C@@H](O)[C@H](O)[C@H]4O)cc3o2)cc1O [Diosmin]	66.8	69	74.6	70.1	–
CC1(C)[C@@H](O)CC[C@]2(C)[C@H]3C(=O)C=C4[C@@H]5C[C@@](C)(C(=O)O)CC[C@]5(C)CC[C@@]4(C)[C@]3(C)CC[C@@H]12 [Enoxolone]	84.3	87	95.5	88.9	–
O=c1ccc2cc(O[C@@H]3O[C@H](CO)[C@@H](O)[C@H](O)[C@H]3O)c(O)cc2o1 [Esculin]	–	–	–	–	DPP4 activity in library screen, Mean [5]: auto-fluorescence
COc1cc(/C=C/C(=O)O)ccc1O [Ferulic Acid]	–	–	–	–	DPP4 activity in library screen, Exp 1 [6]: 97.5; DPP4 activity in library screen, Exp 2 [6]: 83.7; DPP4 activity in library screen, Exp 3 [6]: 98; DPP4 activity in library screen, Mean [5]: 93.1
O=c1c(O)c(-c2ccc(O)c(O)c2)oc2cc(O)ccc12 [Fisetin]	72.3	74	51.8	66	–
COc1ccc(-c2coc3cc(O)ccc3c2=O)cc1 [Formononetin]	102	85.5	108	98.7	–
OCc1ccc(O[C@@H]2O[C@H](CO)[C@@H](O)[C@H](O)[C@H]2O)cc1 [Gastrodin]	91	91.5	98.6	93.7	–
CC1(C)[C@@H](O[C@H]2O[C@H](C(=O)O)[C@@H](O)[C@H](O)[C@H]2O[C@@H]2O[C@H](C(=O)O)[C@@H](O)[C@H](O)[C@H]2O)CC[C@]2(C)[C@H]3C(=O)C=C4[C@@H]5C[C@@](C)(C(=O)O)CC[C@]5(C)CC[C@@]4(C)[C@]3(C)CC[C@@H]12 [Glycyrrhizin (Glycyrrhizic Acid), Glycyrrhizin]	137	78.9	65.2	93.8	–
Cc1cc2c(C(C)C)c(O)c(O)c(C=O)c2c(O)c1-c1c(C)cc2c(C(C)C)c(O)c(O)c(C=O)c2c1O [Gossypol]	54.6	59.8	51.6	55.3	–
CN(C)Cc1c[nH]c2ccccc12 [Gramine]	97.6	97.4	88.2	94.4	–
Nc1nc2c(ncn2[C@@H]2O[C@H](CO)[C@@H](O)[C@H]2O)c(=O)[nH]1 [Guanosine]	104	102	90.2	98.5	–
Oc1cc2c(cc1O)[C@@H]1c3ccc(O)c(O)c3OC[C@]1(O)C2 [Hematoxylin]	70.1	72	84.9	75.7	–
COc1ccc([C@@H]2CC(=O)c3c(O)cc(O)cc3O2)cc1O [Hesperetin]	80.8	106	78.5	88.4	–

Structure (SMILES)	remaining activity at 10 µM [1] [%]	remaining activity at 10 µM [2] [%]	remaining activity at 10 µM [3] [%]	remaining activity at 10 µM [4] [%]	other results
COc1ccc([C@@H]2CC(=O)c3c(O)cc(O[C@@H]4O[C@H](CO[C@@H]5O[C@@H](C)[C@H](O)[C@@H](O)[C@H]5O)[C@@H](O)[C@H](O)[C@H]4O)cc3O2)cc1O [Hesperidin]	–	–	–	–	DPP4 activity in library screen, Exp 1 [6]: 97.2; DPP4 activity in library screen, Exp 2 [6]: 95.1; DPP4 activity in library screen, Exp 3 [6]: 85.1; DPP4 activity in library screen, Mean [5]: 92.5
C=CCc1ccc(O)c(-c2ccc(O)c(CC=C)c2)c1 [Honokiol]	106	94.1	105	102	–
CN(C)CCc1ccc(O)cc1 [Hordenine]	90.7	95.7	95.6	94	–
C[C@H](CCC(=O)O)[C@H]1CC[C@H]2[C@@H]3C[C@H](O)[C@@H]4C[C@H](O)CC[C@]4(C)[C@H]3CC[C@]12C [Hyodeoxycholic acid (HDCA), Hyodeoxycholic acid]	96.6	94.7	96.2	95.8	–
O=c1[nH]cnc2nc[nH]c12 [Hypoxanthine]	96.7	99.3	98.5	98.2	–
COc1ccc(-c2oc3c(CC=C(C)C)c(O[C@@H]4O[C@H](CO)[C@@H](O)[C@H](O)[C@H]4O)cc(O)c3c(=O)c2O[C@@H]2O[C@@H](C)[C@H](O)[C@@H](O)[C@H]2O)cc1 [Icariin]	76	74.5	78.7	76.4	–
O=C1Nc2ccccc2/C1=C1/Nc2ccccc2C1=O [Indirubin]	53.9	58.9	61.7	58.2	–
O=C(O)Cc1c[nH]c2ccccc12 [Indole-3-acetic acid]	115	108	121	115	–
OCc1c[nH]c2ccccc12 [Indole-3-carbinol]	103	92	88.7	94.6	–
O=c1[nH]cnc2c1ncn2[C@@H]1O[C@H](CO)[C@@H](O)[C@H]1O [Inosine]	95.4	94.1	102	97.2	–
CC(C)Oc1ccc2c(=O)c(-c3ccccc3)coc2c1 [Ipriflavone (Osteofix), Ipriflavone]	85.8	99.7	98	94.5	–
O=C(/C=C/c1ccc(O)cc1)c1ccc(O)cc1O [Isoliquiritigenin]	–	–	31.6	–	–
O=c1c(O)c(-c2ccc(O)cc2)oc2cc(O)cc(O)c12 [Kaempferol]	52	72.5	70.4	65	–
c1coc(CNc2ncnc3[nH]cnc23)c1 [Kinetin]	97.6	93.8	93	94.8	–
C[C@@H]1O[C@@H](O)[C@H](O)[C@H](O)[C@H]1O.O [L-(+)-Rhamnose Monohydrate]	–	–	–	–	DPP4 activity in library screen, Exp 1 [6]: 92.8; DPP4 activity in library screen, Exp 2 [6]: 91.1; DPP4 activity in library screen, Exp 3 [6]: 93; DPP4 activity in library screen, Mean [5]: 92.3
Br.CCN1C[C@]2(OC(=O)c3ccccc3NC(C)=O)CC[C@H](OC)[C@]34C1[C@H](C[C@H]23)[C@@]1(O)C[C@H](OC)[C@H]2C[C@@H]4[C@]1(O)[C@H]2OC [Lappaconite HBr]	–	–	–	–	DPP4 activity in library screen, Exp 1 [6]: 95.4; DPP4 activity in library screen, Exp 2 [6]: 80.2; DPP4 activity in library screen, Exp 3 [6]: 92.6; DPP4 activity in library screen, Mean [5]: 89.4
CC1(C)O[C@H]2CC(=O)OC[C@]23[C@H]2CC[C@@]4(C)[C@H](c5ccoc5)OC(=O)[C@H]5O[C@]54[C@]2(C)C(=O)C[C@@H]13 [Limonin]	104	106	91.4	101	–
O=c1cc(-c2ccc(O)c(O)c2)oc2cc(O)cc(O)c12 [Luteolin]	61.4	68.3	70	66.6	–
C=CCc1ccc(O)c(-c2cc(CC=C)ccc2O)c1 [Magnolol]	97.6	108	83.9	96.4	–
